In patent US10004222B2, “Small molecule ice recrystallization inhibitors and methods of use thereof” (THE UNIVERSITY OF OTTAWA, priority 2012, dated 2018):

What was measured:
[1] = tested on: CD34+ cells (hematopoietic stem cells); test: post-thaw viability of CD34+ cells of cryopreserved umbilical cord blood, flow cytometry; format: cell-based, human; details: for Post-Thaw Viab.: UCB Unit 27; for CD34+ cell viability compared with control: vs control that contained 10% DMSO only
Experimental: Whole umbilical cord blood (UCB) should be stored at room temperature (15-25° C.) and processed within 48 hrs of collection. UCB is removed from collection bag and spilt in equal parts into 50 mL Falcon tubes. No more than 25 mL of UCB should be added per Falcon tube. UCB is diluted with 6% hetastarch (Hespan) to obtain a final concentration of 1% hetastarch and incubated for 10 minutes at room temperature. The tubes are then centrifuged at 50 g at 10° C. for 15-20 minutes, depending on volume. The centrifuge should not brake to stop. For total volumes of 30 mL, 15-17 minute centrifugation is utilized and for total volumes of 35 mL, 17-20 minute centrifugation is utilized. The supernatant and buffy coat (plasma and leukocytes) are removed carefully (not collecting RBCs) from the tubes and collected into new 50 mL Falcon tubes. These tubes are centrifuged at 400 g and 10° C. for 10 mins to pellet cells. The centrifuge brake can now be utilized. Plasma is removed and kept in new 50 mL Falcon tubes on ice. The cell pellets resuspended and combined in plasma to a total volume of 20 mL to generate leukocyte concentrate (LC). The LC is kept on ice for the duration of its use. Total mononuclear (CD45^+) and CD34^+ (hematopoetic stem cells) cell concentrations and viability are determined by flow cytometry (see Flow Cytometry procedure below). Aliquots of LC (50,000 CD34^+ cells) are utilized for cryopreservation experiments (see Cryopreservation Experiments procedure below).
Aliquots of LC (50,000 CD34^+ cells) are added to 2.0 mL cryovials. For each experiment, four cryovials are prepared (two for post-thaw viability analysis using flow cytometry and two for functionality analysis using the colony forming unit assay). Cryovials are kept on ice until placement in −80° C. freezer. Cryovials are centrifuged at 400 g and 10° C. for 5 minutes to pellet cells. After centrifugation, the time taken until placement in −80° C. freezer should not exceed 10 minutes. Supernatant is removed by aspiration or by decanting, but preferably by aspiration. Plasma (volume depends on desired cryosolution concentration) is added and cells are suspended by pipetting. Pre-made cryosolutions (see Cryosolutions) are added (volume depends on desired cryosolution concentration) and mixed by pipetting. Cryovials are placed in a Mr. Frosty® rate controlled freezing container which is then placed in a −80° C. freezer for 24 hours. By placing the cryovials in the freezing container, their contents undergo a cooling rate of about −1° C. per minute. After 24 hours, the cryovials are transferred to a liquid nitrogen dewar for storage until thawed for analysis.
Cryosolutions are prepared in distilled autoclaved water supplemented with 0.9% saline and 5% dextran for cryopreservation experiments and diluted with different volumes of plasma in cryovials depending on desired concentration of ice recrystallization inhibitor. N-(4-chlorophenyl)-D-gluconamide (4a) and N-(2-fluorophenyl)-D-gluconamide (2a) are prepared at 25 mM and N-(4-methoxyphenyl)-D-gluconamide (3a) and N-(2,6-difluorobenzyl)-D-gluconamide (1b) are prepared at 55 mM. 100, 50, 33 or 20 μL of 25 mM N-(4-chlorophenyl)-D-gluconamide (4a) or N-(2-fluorophenyl)-D-gluconamide (2a) are added to cryovials containing 50,000 CD34^+ cells suspended in 0, 50, 67, or 80 μL of plasma, respectively, for a final IRI concentration of 25, 12.5, 8 or 5 mM, respectively. 100, 50, 33 or 20 μL of 55 mM N-(4-methoxyphenyl)-D-gluconamide (3a) or N-(2,6-difluorobenzyl)-D-gluconamide (1b) are added to cryovials containing 50,000 CD34^+ cells suspended in 0, 50, 67, or 80 μL of plasma, respectively, for a final IRI concentration of […], 18 or 11 mM, respectively.
Total mononuclear cell (CD45+) and progenitor cell (CD34+) viability is assessed by flow cytometry using International Society of Hematotherapy and Graft Engineering (ISHAGE) guidelines (J. Hematother. Stem Cell Res. 1996, 5, 213-226). […]

[2] = tested on: CD34+ cells (hematopoietic stem cells); test: colony forming unit (CFU) assay after cryopreservation of umbilical cord blood; format: cell-based, human; details: 27.5 mM IRI, 10% DMSO; post-thaw, 14 days in Methocult
Tf1-α cells = test: cryopreservation of Tf1-α cells, viability/apoptosis by flow cytometry (7-AAD, Annexin V); format: cell-based; details: 55 mM aryl-aldonamide, post-thaw
Experimental: Tf1-α cells were cultured to a final concentration of 2-3×10^6 cells/mL. Three million cells were transferred into cryovials and media were removed by aspiration after centrifugation at 1000 rpm for five minutes. 100 μL of RPMI media (10% FBS) supplemented with the cryopreservative of interest was added to the cryovial and vortexed. The cryovials were cooled at a rate of −1° C./min for 24 hours to −80° C. before being transferred to a liquid nitrogen dewar for storage until analysis.
Cryovials were thawed under fast thaw conditions (submerged in 37° C. water bath). The cells were then diluted to a concentration of 3×10^6 cells/mL with 1× Annexin V Binding Buffer and a cell count was obtained by hemacytometer (to obtain cell recovery). A 400 μL aliquot was transferred to a flow cytommetry tube. 10 μL of each Annexin V FITC (for apoptosis) and 7-AAD (for viability) dyes were added, the tube was vortexed and allowed to incubate in the dark for 15 minutes. The solution was diluted to 1 mL with 1× Annexin V Binding Buffer, vortexed and analyzed by flow cytommetry. […] With 2% DMSO, cell viability reached about 45%, and with 10% DMSO, cell viability reached around 78%.

Structure (SMILES) | Post-Thaw Viab. ([1]; 5 mM IRI) | CD34+ cell viability compared with control [1] | BFU-E [2] | CFU-M [2] | Apoptosis (%) (Tf1-α cells; 0% DMSO) | Cell Viability (%) (Tf1-α cells; 0% DMSO) | Apoptosis (%) (Tf1-α cells; 2% DMSO) | Cell Viability (%) (Tf1-α cells; 2% DMSO) | Apoptosis (%) (Tf1-α cells; 10% DMSO) | Cell Viability (%) (Tf1-α cells; 10% DMSO) | Post-Thaw Viab. ([1]; 11 mM IRI)
O=C(Nc1ccc(Cl)cc1)[C@H](O)[C@@H](O)[C@H](O)[C@H](O)CO [(4a), N-(4-chlorophenyl)-D-gluconamide] | 88% | substantially similar to the control | – | – | – | – | – | – | – | – | –
COc1ccc(NC(=O)[C@H](O)[C@@H](O)[C@H](O)[C@H](O)CO)cc1 [(3a), N-(4-methoxyphenyl)-D-gluconamide] | – | substantially similar to the control | 35.0 | 3.5 | 0% | 0.16% | 1.38% | 74.33% | 2.73% | 95.33% | 78%
O=C(Nc1ccccc1F)[C@H](O)[C@@H](O)[C@H](O)[C@H](O)CO [(2a), N-(2-fluorophenyl)-D-gluconamide] | 88% | substantially similar to the control | – | – | 0% | 1.27% | 1.5% | 81.28% | 3.37% | 92.83% | –
O=C(NCc1c(F)cccc1F)[C@H](O)[C@@H](O)[C@H](O)[C@H](O)CO [(1b), N-(2,6-difluorobenzyl)-D-gluconamide] | – | substantially similar to the control | 28.5 | 2.0 | – | – | – | – | – | – | 57%
